# Assay results taken from publication PMC8398081, “Antioxidant Activity, α-Glucosidase Inhibition and UHPLC–ESI–MS/MS Profile of Shmar (Arbutus pavarii Pamp)” (Plants, 2021).
# Legend:
# [1] = Ferric reducing antioxidant power (FRAP) assay; conditions: 37 °C, 30 min, 593 nm; FeSO4 standard curve; mean ± SD, n=3
# Method: The FRAP of extracts and fractions were examined according to Kadum et al. method with slight modifications. […] A volume of 10 μL of methanol extract or fractions was transferred into 96-well microplates, followed by addition of 200 μL FRAP reagent and incubation at 37 °C for 30 min. The absorbance was checked through microplate reader (SPECTRAmax PLUS) at 593 nm. The absorbances of ferrous sulfate solution (FeSO4·7H2O), with a range of concentrations between 0.1 and 1 mM were used for plotting a calibration curve. The ascorbic acid was used as positive control and FRAP was presented as mM Fe (II)/g extract for extracts and mM Fe (II)/g fraction for fractions.
# [2] = DPPH free radical scavenging assay; conditions: 30 min in dark, 517 nm; mean ± SD, n=3
# Method: The DPPH assay was conducted in accordance with Lee et al. method. Initially, 100 µL of DPPH (5.9 mg in 100 mL ethanol) was mixed with 50 µL of the extracts or fractions. The mixtures were then kept in dark for 30 min at room temperature. The absorbance was measured using microplate reader at 517 nm. Quercetin was used as a positive control in the assay. The scavenging activity was calculated using the equation Scavenging Activity (%) = [(Ac – As)/Ac] × 100%, where (Ac) is the absorbance of the blank reagent while (As) is the absorbance of the tested samples. The analysis was performed in triplicates and the results were described as IC50 value.
DPPH IC50 [2],Compound,FRAP [1]
–,O=C1O[C@H]([C@@H](O)CO)C(O)=C1O [Ascorbic acid],180.64 ± 0.01 mmol Fe (II)/g Extract
8.6 ± 0.70 µg/mL,O=c1c(O)c(-c2ccc(O)c(O)c2)oc2cc(O)cc(O)c12 [Quercetin],–
